Key:
[1] = solid state; cited from earlier work
[2] = Nebulizer studies (Pari ProNeb Ultra / LC Plus, AS-6 impactor, by-pass collector); conditions: 0.12% NaCl; no precipitate during nebulization
Protocol: Nebulizer Studies. […] The nebulizer is filled with 5 mL of solution and nebulization is continued until the output became visually insignificant (4½ to 5 min.). Nebulizer solutions are tested using a California Instruments AS-6 6-stage impactor with a USP throat. The impactor is run at 30 L/min for 8 seconds to collect a sample following one minute of nebulization time. At all other times during the experiment, the aerosol is drawn through the by-pass collector at approximately 33 L/min. The collection apparatus, nebulizer, and impactor are rinsed with mobile phase and assayed by HPLC. […] This volume is selected as the practical upper limit for use in a clinical study.

[3] = Stability at 50° C. with and without lactose (DHEA formation by HPLC); assay type: physicochemical; conditions: 1 week at 50° C.
Excerpt: These conditions were used to stress the formulation in order to predict its long-term stability results.
The primary degradant is dehydroepiandrosterone or DHEA. […] The materials on accelerated storage become more cohesive with time as evidenced by clumping during sample weighing for chemical analysis. […] This is a considerable disadvantage since lactose is the most commonly used inhalation excipient for dry powder formulations. Continuing with the virtually anhydrous form would mean limiting formulations to neat powder or undertaking more comprehensive safety studies to use a novel excipient.

In the case of `C[C@]12CC[C@H](OS(=O)(=O)[O-])CC1=CC[C@@H]1[C@@H]2CC[C@]2(C)C(=O)CC[C@@H]12.[Na+]` [Anhydrous DHEA-S], the hygroscopicity [1] is given as “very hygroscopic”.

With `C[C@]12CC[C@H](OS(=O)(=O)[O-])CC1=CC[C@@H]1[C@@H]2CC[C@]2(C)C(=O)CC[C@@H]12.[Na+]` [DHEA-S, sodium dehydroepiandrostenone sulfate] the “highest solution concentration for a proof of concept clinical trial formulation” value [2] was “approximately 7.5 mg/mL”.

In the case of `CC12CCC3C(CC=C4CC(OS(=O)(=O)[O-])CCC43C)C1CCC2=O.[Na+]` (stereo not drawn) [DHEA-S dihydrate, dehydroepiandrosterone sodium sulfate dihydrate], the color after storage [3] is reported as “no change in color”.
